What all share (type): cell-based
Test [1] has as its system Staphylococcus aureus (g+) LMG 8064. Kind of test: Poison Plate Assay, bacteria on Tryptose Agar. The conditions noted are these: ppm total active ingredient, growth evaluated after five days, 27° C. The procedure:
(§1) Experiment 1: Poison Plate Assay
(§2) • pyrimethanil (I-a) • cyprodinil (I-b) • mepanipyrim (I-c) Name of Component (II): • 1-hydroxy-2-pyridinone (II-a) • ciclopirox (II-b) • ciclopirox olamine (II-c) • piroctone (II-d) • piroctone olamine (II-e) • rilopirox (II-f) • pyrion disulfide (II-g) • sodium pyrithione (II-h) • zinc pyrithione (II-i) Test Models: • Fungi: to each well of a 24-well microtiter plate, 1000 μl of Glucose Agar (GA: 10 g glucose, 1.5 g K2HPO4, 2 g KH2PO4, 1 g (NH4)2SO4, 0.5 g MgSO4 and 12.5 g agar in 1 liter deionised water) containing the appropriate combination of the test compounds in one of the concentrations of a dose series is added. The nutrient medium is inoculated with the test fungi by adding a spore/mycelium suspension (10 μl) or a small piece of agar from the margin of an actively growing colony and incubated under dark at 27° C. with 70% relative humidity. […] The nutrient medium is inoculated by adding 10 μl of an actively growing liquid culture of the test bacteria in tryptose broth (without agar), and incubated under dark at 27° C. with 70% relative humidity. The growth is evaluated after five days. Concentrations: • Synergy experiment with hydroxypyridone: • MIC values for single compounds were collected from previous screening experiments. These MIC values were used as a guide in determining of the most suitable test dose ranges. For the combination experiments, two overlapping dose series were used, in order to maximise the chance of the MIC values falling within the test concentration range for all combinations: • Series 1: 50.00-37.50-28.13-21.09-15.82-11.87-8.90-6.67-5.01-3.75-2.82-2.11 ppm • Series 2: 25.00-18.75-14.06-10.55-7.91-5.93-4.45-3.34-2.50-1.88-1.41-1.06 ppm • Synergy experiments with bispyrithione and sodium pyrithione: 10.00-7.50-5.63-4.22-3.16-2.37-1.78-1.33-1.00-0.75-0.56-0.42 ppm
(§3) (2000) “Measuring synergy” cosmetics & Toiletries 115(11): 59-62; and Lada, A., A. N. Petrocci, H. A. Green, and J. J. Merianos (1977) “Antimicrobial composition” U.S. Pat. No. 4,061,750, 3 pp.): […]

In test [2] the test system is Chaetomium globosum ATCC6205. Kind of test: Poison Plate Assay, fungi on Glucose Agar. The conditions noted are these: % (I-a) + % (II-g), ppm total active ingredient, growth evaluated after two weeks, 27° C. As for the experimental part: as §1, §2, §3
Test [3] has as its system Ulocladium atrum IMI214699a. Kind of test: Poison Plate Assay, fungi on Glucose Agar. The conditions noted are these: % (I-a) + % (II-h), ppm total active ingredient, growth evaluated after two weeks, 27° C. The procedure:
as §1, §2, §3

Molecules are shown by their SMILES.

We go through 3 molecules from patent US8575187B2, “Combinations of anilinopyrimidines and pyrion compounds” (Janssen Pharmaceutica, NV, priority 2008, dated 2013).

For the molecule `[O-][n+]1ccccc1SSc1cccc[n+]1[O-]` [(I-a) + (II-g) 0 + 100, pyrion disulfide], the MIC in test [1] (LMG8064, 120 h, % (I-a) + % (II-g), read-out: MIC-values (minimum inhibitory concentration) in ppm) was determined as 213 µg/mL; in test [2] (ATCC6205, 336 h, read-out: MIC-values (minimum inhibitory concentration) in ppm), 40 µg/mL.

As for `Cc1cc(C)nc(Nc2ccccc2)n1` [(I-a) + (II-g) 100 + 0, pyrimethanil], the “MIC-values (minimum inhibitory concentration) in ppm” value in test [1] (% (I-a) + % (II-g)) came out at 3.16 ppm; in test [2], 1.78 ppm.

`Cc1cc(C)nc(Nc2ccccc2)n1` [(I-a) + (II-h) 100 + 0, pyrimethanil]: the “MIC-values (minimum inhibitory concentration) in ppm” value is reported as 4.22 ppm in test [1] (% (I-a) + % (II-h)) and 3.16 ppm in test [3].
